Where a name gives a salt, the structure may show the parent alone.
Legend:
Conditions in all cases: exposure time: 72 h
E13 [1] = patient-derived glioblastoma stem cells of classical subtype; test: surviving fraction (nuclei count normalised to DMSO); higher = more cells surviving (less toxic)
E21 [2] = patient-derived glioblastoma stem cells of mesenchymal subtype; test: as above
E28 [3] = patient-derived glioblastoma stem cells of classical subtype; test: as above
E31 [4] = patient-derived glioblastoma stem cells of proneural subtype; test: as above
E34 [5] = patient-derived glioblastoma stem cells of proneural subtype; test: as above
E57 [6] = patient-derived glioblastoma stem cells of mesenchymal subtype; test: as above
FT3469 [7] = normal neural stem cell line; test: as above
E13 [8] = test: phenotypic distance (Euclidean, principal components) from DMSO controls (arbitrary units); higher = stronger morphological change
E21 [9] = test: as above
E28 [10] = test: as above
E31 [11] = test: as above
E34 [12] = test: as above
E57 [13] = test: as above
FT3469 [14] = test: as above
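Throughout, for phenotypic distance (Euclidean, principal components) from DMSO controls: cell Painting imaging in 384-well plates, CellProfiler features reduced to at least 20 principal components, Euclidean distance versus same-plate DMSO vehicle wells (0.1% v/v), median over six images per well.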
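Throughout, for surviving fraction (nuclei count normalised to DMSO): nuclei counted by high-content imaging of Hoechst-stained cells in laminin-coated 384-well plates, relative to 0.1% DMSO vehicle wells, with staurosporine as cell-death control.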

CCCCC(CC)CNC(=N)NC(=N)NCCCCCCNC(=N)NC(=N)NCC(CC)CCCC (stereo not drawn) [Alexidine dihydrochloride]
Conditions | phenotypic distance | surviving fraction
E13 [1], 4.1 nM | – | 0.884
E13 [1], 12.3 nM | – | 0.905
E13 [1], 37 nM | – | 0.978
E13 [1], 111.1 nM | – | 0.877
E13 [1], 333.3 nM | – | 0.607
E13 [1], 1000 nM | – | 0.602
E13 [1], 3000 nM | – | 0.0804
E13 [8], 4.1 nM | 0.582 | –
E13 [8], 12.3 nM | 0.387 | –
E13 [8], 37 nM | 0.788 | –
E13 [8], 111.1 nM | 0.757 | –
E13 [8], 333.3 nM | 1.76 | –
E13 [8], 1000 nM | 1.39 | –
E13 [8], 3000 nM | 10.1 | –
E21 [2], 4.1 nM | – | 0.967
E21 [2], 12.3 nM | – | 0.916
E21 [2], 37 nM | – | 0.945
E21 [2], 111.1 nM | – | 1.02
E21 [2], 333.3 nM | – | 1.07
E21 [2], 1000 nM | – | 0.368
E21 [2], 3000 nM | – | 0.00297
E21 [9], 4.1 nM | 0.597 | –
E21 [9], 12.3 nM | 1.12 | –
E21 [9], 37 nM | 0.958 | –
E21 [9], 111.1 nM | 0.651 | –
E21 [9], 333.3 nM | 0.84 | –
E21 [9], 1000 nM | 4.98 | –
E21 [9], 3000 nM | 19 | –
E28 [3], 4.1 nM | – | 0.911
E28 [3], 12.3 nM | – | 0.933
E28 [3], 37 nM | – | 0.847
E28 [3], 111.1 nM | – | 1.04
E28 [3], 333.3 nM | – | 0.694
E28 [3], 1000 nM | – | 0.233
E28 [3], 3000 nM | – | 0.0064
E28 [10], 4.1 nM | 1.07 | –
E28 [10], 12.3 nM | 0.612 | –
E28 [10], 37 nM | 0.518 | –
E28 [10], 111.1 nM | 0.461 | –
E28 [10], 333.3 nM | 1.31 | –
E28 [10], 1000 nM | 3.13 | –
E28 [10], 3000 nM | 12.9 | –
E31 [4], 4.1 nM | – | 0.955
E31 [4], 12.3 nM | – | 0.825
E31 [4], 37 nM | – | 1.1
E31 [4], 111.1 nM | – | 1.02
E31 [4], 333.3 nM | – | 0.871
E31 [4], 1000 nM | – | 0.125
E31 [4], 3000 nM | – | 0.013
E31 [11], 4.1 nM | 0.786 | –
E31 [11], 12.3 nM | 0.686 | –
E31 [11], 37 nM | 1.01 | –
E31 [11], 111.1 nM | 0.884 | –
E31 [11], 333.3 nM | 0.669 | –
E31 [11], 1000 nM | 5.57 | –
E31 [11], 3000 nM | 11.7 | –
E34 [5], 4.1 nM | – | 0.86
E34 [5], 12.3 nM | – | 1.11
E34 [5], 37 nM | – | 0.972
E34 [5], 111.1 nM | – | 0.991
E34 [5], 333.3 nM | – | 0.939
E34 [5], 1000 nM | – | 0.512
E34 [5], 3000 nM | – | 0.0472
E34 [12], 4.1 nM | 1.35 | –
E34 [12], 12.3 nM | 1.19 | –
E34 [12], 37 nM | 0.769 | –
E34 [12], 111.1 nM | 0.582 | –
E34 [12], 333.3 nM | 0.858 | –
E34 [12], 1000 nM | 4.01 | –
E34 [12], 3000 nM | 14.9 | –
E57 [6], 4.1 nM | – | 1.01
E57 [6], 12.3 nM | – | 1.01
E57 [6], 37 nM | – | 0.91
E57 [6], 111.1 nM | – | 1.03
E57 [6], 333.3 nM | – | 0.828
E57 [6], 1000 nM | – | 0.252
E57 [6], 3000 nM | – | 0.00967
E57 [13], 4.1 nM | 0.655 | –
E57 [13], 12.3 nM | 0.696 | –
E57 [13], 37 nM | 0.435 | –
E57 [13], 111.1 nM | 0.715 | –
E57 [13], 333.3 nM | 1.53 | –
E57 [13], 1000 nM | 6.34 | –
E57 [13], 3000 nM | 10.4 | –
FT3469 [7], 4.1 nM | – | 0.76
FT3469 [7], 12.3 nM | – | 0.814
FT3469 [7], 37 nM | – | 0.863
FT3469 [7], 111.1 nM | – | 1.16
FT3469 [7], 333.3 nM | – | 0.863
FT3469 [7], 1000 nM | – | 0.504
FT3469 [7], 3000 nM | – | 0.0403
FT3469 [14], 4.1 nM | 1.28 | –
FT3469 [14], 12.3 nM | 1.28 | –
FT3469 [14], 37 nM | 1.13 | –
FT3469 [14], 111.1 nM | 0.545 | –
FT3469 [14], 333.3 nM | 1.44 | –
FT3469 [14], 1000 nM | 2.26 | –
FT3469 [14], 3000 nM | 11.7 | –
